Source: patent US20140228440A1, “1-AMINO-ALKYLCYCLOHEXANE DERIVATIVES FOR THE TREATMENT OF INFLAMMATORY SKIN DISEASES” (MERZ PHARMA GmbH & CO. KGaA, priority 2008, published 2014)

Columns and labels:
Propionibacterium acnes = test: Log reduction assay; format: cell-based; conditions: 3.125% solution
Procedure: In order to determine the efficacy of Neramexane against a specific microorganism population (i.e., Propionibacterium acnes), a log reduction assay is performed. The organisms are prepared by inoculating the fluid thioglycolate (FTM). The microorganism is then incubated at 35.2±2.5° C. for 24 hours. The microbial suspension is adjusted to approximately 107 to 108 colony forming units (CFU) per mL and labeled as the stock suspension. […] Then […] is transferred into 11 mL of DI water to prepare a 3.125% solution. This solution is then inoculated with the microorganism and tested at time intervals of 30 seconds, 1 minute, and 5 minutes. One milliliter from each dilution is spread plated in duplicate onto tryptic soy agar with 5% sheep blood. The plates are incubated anaerobically at 35.2±2.5° C. for a minimum of 48 hours. The same procedure is repeated for the Phosphate Buffer Saline control. After the incubation period, all plates are counted to determine the number of microorganisms remaining at each time point. The concentration of each microorganism for the control and product is calculated for each interval. The log reduction is calculated to determine the change (reduction or increase) of the microorganism population relative to a starting inoculum. The minimum required bactericidal concentration is defined as a 3 log reduction from the initial inoculum.

dermal application sites = test: Local tolerability of topical formulation, 14 days of daily dermal treatment; format: in vivo, Göttingen minipigs
Procedure: The objective of this study is to evaluate the local tolerance of Neramexane mesylate in a topical formulation at different dose levels after 14 days of daily dermal treatment to minipigs.
The study is performed in 4 female Gottingen SPF minipigs (from Ellegaard Gottingen Minipigs Aps). Each animal has 5 application sites (25 cm^2) marked on the back and is dosed for 8 hours each day. Each test site is used for the same test item or placebo throughout the study. The test group is treated with Neramexane mesylate at the following concentrations: 0, 0.5, 2.5, 5.0 and 10.0% (w/w).
Clinical signs are recorded 2-4 hours post start of each treatment and the local dermal reactions (erythema, oedema) are evaluated prior to treatment. Body weight is recorded weekly (and also on Day 1 and at necropsy).

[1] = system: Staphylococcus aureus ATCC 6538; test: MIC by the agar dilution method; format: cell-based; conditions: pH 5.5
Procedure: (§1) To assess the anti-microbial potency of Neramexane against bacteria strains which are relevant for atopic dermatitis and localized skin infections (“impetigo”), the minimal inhibitory concentration (MIC) against the following bacteria is established:
(§2) The MICs of the samples are determined using the agar dilution method based on DIN 58940. Petri dishes of 5.5 cm diameter are poured with 2.5 ml of freshly prepared Mueller-Hinton agar 2-fold concentrated (Merck company, Cat-No 1.05437), pH 5.5, maintained in liquid form at 50° C., to which the sample dilutions at various concentrations has been added at 50.0 vol.-%.
(§3) Neramexane-Mesylate is tested in the concentration range of 6.25-1*10^−2%. All test solutions are adjusted to pH 5.5.
(§4) For inoculation, 1 μl of the respective germ suspension is placed on the centre of each agar plate. After drying, inoculated plates are incubated at 36.0±2.0° C. The basis for the length of incubation period is the respective growth control cultivated in parallel.
(§5) The test microbe suspension is prepared by inoculating a few individual colonies of the respective bacteria into sterile saline solution until a turbidity corresponding to the McFarland standard 1.0 (approximately 10^8 cfu/ml) is reached. After that, the test microbe suspensions are further diluted 1:10 with saline solution and the microbial counts (see Table 33) are determined by the surface spread method using a spiral plater.
(§6) The agar plates are incubated under the conditions given in Table 34 and subsequently evaluated. The MIC-values as given represent the lowest concentration of the active substance at which there is no macroscopically visible growth. Minimal, barely visible growth or few small individual colonies are evaluated as inhibition.
(§7) The growth of bacteria is indicated for the duplicate plates by a +(i.e., growth) or a −(i.e., no growth), +− indicates weak growth on both plates or growth on one plate and no growth on the other plate. Both bacteria-strains show appropriate growth on the respective control plate not containing any test compound. No influence of the used diluent (Aqua purifacata) is observed. No contamination is observed on the control-plates. In general it has to be considered that values determined by the used method can vary by a factor of 2 (for 1:2 dilutions).

[2] = system: Streptococcus pyogenes ATCC 12344; test: MIC by the agar dilution method; format: cell-based; conditions: pH 5.5
Procedure: as §1, §2, §3, §4, §5, §6, §7

[3] = 0.5, 2.5, 5.0 and 10.0% (w/w), dermal, 14 days

Compound: CC1(C)CC(C)(C)CC(C)(N)C1.CS(=O)(=O)O [Neramexane mesylate]
- % Reduction (Propionibacterium acnes; exposure time 30 sec): 91.6%
- Concentration of Organism (CFU/mL) (Propionibacterium acnes; exposure time 30 sec): 1.8E+04 CFU/mL
- Log Reduction (Propionibacterium acnes; exposure time 30 sec): 1.1
- % Reduction (Propionibacterium acnes; exposure time 1 min): 79.0%
- Concentration of Organism (CFU/mL) (Propionibacterium acnes; exposure time 1 min): 4.4E+04 CFU/mL
- Log Reduction (Propionibacterium acnes; exposure time 1 min): 0.7
- % Reduction (Propionibacterium acnes; exposure time 5 min): 100.0%
- Concentration of Organism (CFU/mL) (Propionibacterium acnes; exposure time 5 min): <10 CFU/mL
- Log Reduction (Propionibacterium acnes; exposure time 5 min): 4.3
- test item related changes (conclusion) (dermal application sites; 0.5%, 2.5%, 5% and 10% in a topical formulation, 14 Days): no test item related changes
- clinical signs and body weight gain (dermal application sites; [3]): No test item related changes are observed
- dermal skin reactions (erythema, oedema) (dermal application sites; [3]): no test item related dermal skin reactions are observed
- gross necropsy (dermal application sites; [3]): no macroscopic changes are observed
- histopathology evaluation of the dermal application sites (dermal application sites; [3]): no treatment-related macroscopic or microscopic findings
- growth of bacteria on duplicate plates (MIC determination) ([1]; final concentration 0.01 %): + +
- growth of bacteria on duplicate plates (MIC determination) ([1]; final concentration 0.04 %): + +
- growth of bacteria on duplicate plates (MIC determination) ([1]; final concentration 0.08 %): + +
- growth of bacteria on duplicate plates (MIC determination) ([1]; final concentration 0.16 %): + +
- growth of bacteria on duplicate plates (MIC determination) ([1]; final concentration 0.31 %): + +
- growth of bacteria on duplicate plates (MIC determination) ([1]; final concentration 0.63 %): + −
- growth of bacteria on duplicate plates (MIC determination) ([1]; final concentration 1.56 %): − −
- growth of bacteria on duplicate plates (MIC determination) ([1]; final concentration 2.50 %): − −
- growth of bacteria on duplicate plates (MIC determination) ([1]; final concentration 3.13 %): − −
- growth of bacteria on duplicate plates (MIC determination) ([1]; final concentration 6.25 %): − −
- MIC [1]: 1.56%
- growth of bacteria on duplicate plates (MIC determination) ([2]; final concentration 0.01 %): + +
- growth of bacteria on duplicate plates (MIC determination) ([2]; final concentration 0.04 %): + +
- growth of bacteria on duplicate plates (MIC determination) ([2]; final concentration 0.08 %): − −
- growth of bacteria on duplicate plates (MIC determination) ([2]; final concentration 0.16 %): − −
- growth of bacteria on duplicate plates (MIC determination) ([2]; final concentration 0.31 %): − −
- growth of bacteria on duplicate plates (MIC determination) ([2]; final concentration 0.63 %): − −
- growth of bacteria on duplicate plates (MIC determination) ([2]; final concentration 1.56 %): − −
- growth of bacteria on duplicate plates (MIC determination) ([2]; final concentration 2.50 %): − −
- growth of bacteria on duplicate plates (MIC determination) ([2]; final concentration 3.13 %): − −
- growth of bacteria on duplicate plates (MIC determination) ([2]; final concentration 6.25 %): − −
- MIC [2]: 0.08%
